Experimental data taken from US20100190694A1, “Methods for identifying patients who will respond well to cancer treatment” (priority 2009, published 2010).
pIC50: −log10 of the molar value. “And” between values parts separate entries of the source, which are not always exact repeats. Equal values may be shown once. Read-outs that look alike come from different tables or passages of the source. Marks after values point to notes of the source that are not given here.

Experiments:
[1] = system: dihydropyrimidine dehydrogenase (DPD); test: DPD mRNA by RTQ-PCR in tumor biopsies; assay type: in vivo, human
Procedure: (§1) DLTs, i.e. grade ¾ non-hematologic toxicities and grade 4 neutropenia or thrombocytopenia, were determined in cycles 1 and 2. Safety was assessed by NCI CTC (v. 3) and efficacy by RECIST criteria. Expression of TS, DPD, and p21 mRNA was measured by RTQ-PCR in PBMC (20 patients at baseline, and pre-dosing, 6 and 24-hours post-dosing, on days 1 and 4 in cycle 1) and in tumor biopsies (8 patients at baseline and once on days 4 or 5 in cycle 1). Results were expressed as gene expression relative to actin (i.e. TS/Actin Relative Gene Expression, DPD/Actin Relative Gene Expression, and p21/Actin Relative Gene Expression).

[2] = system: rapidly proliferating cells; test: cell cycle arrest and apoptosis; assay type: cell-based
[3] = parameters: species or system human; conditions: in vivo
Procedure: Cardiac safety was analyzed by extensive ECG monitoring (>3.000 ECG's assessed) in combination with PK assessments of Bel. Based on analyses by a central laboratory, the main findings (mean changes from baseline at the different dose-levels and for Bel alone and in combination with FU) were: • Heart rate, changes of −1 to +11 bpm, without outliers or any dose relationship. • PR duration, changes of −8 to +2 ms, without outliers or any dose relationship. • QRS duration, changes of −3 to +4 ms, without outliers or any dose relationship. • QTcF duration, changes of −4 to +18 ms, without any dose relationship. One outlier pat with a new QTcF value >500 ms was identified at dose-level 1000/750 (max post-infusion QTcF value 522 ms from pre-infusion value of 487 ms).
(§2) Phase I dose-escalation, multi-center study with the objectives to assess: • maximum tolerated dose and dose limiting toxicities (DLT) of Bel in combination with FU • impact of Bel on expression of TS, dihydropyrimidine dehydrogenase (DPD), and p21, in tumor and non-tumor surrogate tissue (peripheral blood mononuclear cells; PBMC) • preliminary anti-tumor activity of Bel in combination with FU • impact of Bel on ECG parameters • pharmacokinetics (PK) of Bel when given in combination with FU

[4] = system: p21; test: p21 mRNA by RTQ-PCR in PBMC; assay type: in vivo, human; conditions: for P21 maximum percentage change versus baseline: one value per patient
Procedure: as §1

[5] = system: tumour; test: xenograft models, tumour growth; conditions: in vivo
[6] = system: thymidylate synthase (TS); test: TS mRNA by RTQ-PCR in tumor biopsies; assay type: in vivo, human; conditions: Bel monotherapy, Bel 1000 mg/m^2/day, patients with pre- and post-Bel samples
Procedure: as §1

[7] = system: thymidylate synthase (TS); conditions: HCT116 colon cancer cells, in vitro; cited from earlier work
[8] = Phase I study: pharmacokinetics of Bel; assay type: in vivo, human; conditions: for half-life: read-out: T1/2, group mean (±SD) (converted)
Source text: as §2
Treatment cycles of 21 days included Bel alone in cycle 1, and Bel in combination with FU in all subsequent cycles (FIG. 4). Treatment was to continue until significant treatment-related toxicity or progressive disease.

[9] = system: thymidylate synthase (TS); test: TS mRNA by RTQ-PCR in PBMC; assay type: in vivo, human; conditions: for TS maximum percentage change versus baseline: one value per patient
Procedure: as §1

[10] = system: diverse tumour cell lines; test: proliferation of diverse tumour cell lines; assay type: cell-based; conditions: range over cell lines; read-out: IC50, blocks proliferation of diverse tumour cell lines
[11] = system: TS, DPD, and p21 expression in PBMC; test: '2 out of 3' TS/DPD/p21 expression pattern in PBMC versus clinical outcome; assay type: in vivo, human
Source text: Among the 20 patients where an attempt was made to analyze TS, DPD, and p21 in PBMC, 2 patients seemed to have a clearly favorable clinical outcome (patients 101-3 and 102-14 with treatment durations on Bel/FU of 8 and 14 cycles, respectively; see Tables 4 and 6), i.e. a 10% favorable outcome rate without selection.
If selection of patients for treatment with Bel/FU would have been done after an initial-dose of Bel and analyses of TS, DPD, and p21 expression in PBMC 6-hours post Bel dosing, the favorable outcome rate could have been increased to between 33% and 67% by selection of patients based on a “2 out of 3” positive expression pattern (positive assumed to be TS down-, DPD down-, and p21 up-regulation in comparison to a pre-treatment value).
Selection based on one single sample taken 6-hours post Bel dosing (Table A): 6 (30%; patients 101-3/5/6/7, 102-6/14) of the 20 patients have “2 out of 3” markers showing a favorable expression change after Bel dosing, and 2 (33%) of the 6 patients have clearly favorable clinical outcomes. Note, also patients 101-6 and 101-7 with a “2 out of 3” pattern, but not counted as having “clearly favorable clinical outcome” have longer than median treatment durations on Bel/FU (i.e. 4 cycles; see Table 4).
Selection based on mean of two samples taken 6-hours post Bel dosing (Table B): 3 (15%; patients 101-3, 102-6/14) of the 20 patients have “2 out of 3” markers showing a favorable expression change after Bel dosing, and 2 (67%) of the 3 patients have clearly favorable clinical outcomes.
as §1

[12] = system: dihydropyrimidine dehydrogenase (DPD); test: DPD mRNA by RTQ-PCR in PBMC; assay type: in vivo, human; conditions: for DPD maximum percentage change versus baseline: one value per patient
Procedure: as §1

[13] = system: p21; test: p21 mRNA by RTQ-PCR in tumor biopsies; assay type: in vivo, human; conditions: for patients with up-regulation of p21 in tumor tissue: Bel monotherapy, Bel 1000 mg/m^2/day
Procedure: as §1

[14] = patient tumor samples, cycle 1 day 4 or 5, Bel 1000 mg/m^2/day, one value per patient, listed as belinostat
[15] = PXD 600, one value per patient, listed as PXD
[16] = PXD 600, one value per patient, listed as PXD, with FU dose 250
[17] = PXD 600, one value per patient, listed as PXD, with FU dose 1000
[18] = PXD 1000, one value per patient, listed as PXD
[19] = PXD 1000, one value per patient, listed as PXD, with FU dose 250
[20] = PXD 1000, one value per patient, listed as PXD, with FU dose 500
[21] = PXD 1000, one value per patient, listed as PXD, with FU dose 1000
[22] = cycle 1, Belinostat Dose 300 mg/m^2/day
[23] = cycle 1, Belinostat Dose 600 mg/m^2/day
[24] = cycle 1, Belinostat Dose 1000 mg/m^2/day
[25] = belinostat 1000 mg/m^2/day alone, Cycle 2 Day 1, n = 14
[26] = belinostat 1000 mg/m^2/day in combination with FU, Cycle 2 Day 5, n = 13

O=C(/C=C/c1cccc(S(=O)(=O)Nc2ccccc2)c1)NO [PXD-101]
DPD expression change in tumor tissue ([1]; Bel monotherapy, Bel 1000 mg/m^2/day): minor changes | DPD Change vs baseline [1, 14]: ≈ | cell cycle arrest and apoptosis [2]: causes cell cycle arrest and apoptosis | max post-infusion QTcF value of the one outlier pat ([3]; human): 522 ms | effect on heart rate, AV conduction, cardiac depolarization, morphology or cardiac re-polarization [3]: no clear signal of any clinically relevant effect | 6mean-p21, Change from baseline at 6 h based on mean of d1 + d4 ([4]; PXD 300, one value per patient): 41% | D1-6: p21, Change from baseline at 6 h day 1 ([4]; PXD 300, one value per patient): 35% | D1-6: p21, Change from baseline at 6 h day 1 [4, 15]: −9% and 31% and −48% | 6mean-p21, Change from baseline at 6 h based on mean of d1 + d4 [4, 16]: −16% and −55% | 6mean-p21, Change from baseline at 6 h based on mean of d1 + d4 [4, 17]: 15% | D1-6: p21, Change from baseline at 6 h day 1 [4, 18]: 272% and −54% and 115% and −25% and 16% and 43% and 21% and 13% and −11% and 74% and 68% | 6mean-p21, Change from baseline at 6 h based on mean of d1 + d4 [4, 19]: 272% and −55% and 155% and −17% and 44% and 32% | 6mean-p21, Change from baseline at 6 h based on mean of d1 + d4 [4, 20]: 21% and −25% | 6mean-p21, Change from baseline at 6 h based on mean of d1 + d4 [4, 21]: −35% and 23% and 74% | P21 maximum percentage change versus baseline [4, 22]: 48% * | P21 maximum percentage change versus baseline [4, 23]: 43% * and 88% * and −86% | P21 maximum percentage change versus baseline [4, 24]: 68% * and 972% * and −72% and 715% * and 62% * and 156% * and 43% * and −71% and −83% and −86% and 74% * and −47% | tumour growth in xenograft models [5]: slows tumour growth | patients with TS down-regulated in tumor tissue ([6]; listed as Bel): 4 of 4 | patients with TS down-regulated in tumor tissue ([6]; listed as belinostat): Four of 4 | expression of thymidylate synthase (TS) [7]: reduce the expression | CL, group mean (±SD) [8, 25]: 37,580 (10,893) ml/hr/m^2 | Vss, group mean (±SD) [8, 25]: 16,528 (4,918) ml/m^2 | Vz, group mean (±SD) [8, 25]: 58,362 (26,136) ml/m^2 | CL, group mean (±SD) [8, 26]: 30,141 (13,824) ml/hr/m^2 | Vss, group mean (±SD) [8, 26]: 13,538 (7,253) ml/m^2 | Vz, group mean (±SD) [8, 26]: 53,316 (29,753) ml/m^2 | PK linearity ([8]; day 1 across all dose cohorts (n=22)): linear PK | half-life ([8]; human, in vivo, intravenous, 1000 mg/m2, belinostat 1000 mg/m^2/day alone, Cycle 2 Day 1, n = 14): 1 h | AUC(0-inf) ([8]; human, in vivo, intravenous, belinostat 1000 mg/m^2/day in combination with FU, Cycle 2 Day 5, n = 13, read-out: AUC0-∞, group mean (±SD)): 33300 ng·h/mL | AUC ([8]; human, in vivo, intravenous, belinostat 1000 mg/m^2/day in combination with FU, Cycle 2 Day 5, n = 13, read-out: AUCall, group mean (±SD)): 33200 ng·h/mL | Cmax ([8]; human, in vivo, intravenous, belinostat 1000 mg/m^2/day in combination with FU, Cycle 2 Day 5, n = 13, read-out: Cmax, group mean (±SD)): 49500 ng/mL | half-life ([8]; human, in vivo, intravenous, belinostat 1000 mg/m^2/day in combination with FU, Cycle 2 Day 5, n = 13): 1.2 h | 6mean-TS, Change from baseline at 6 h based on mean of d1 + d4 ([9]; PXD 300, one value per patient): 410% | D1-6: TS, Change from baseline at 6 h day 1 ([9]; PXD 300, one value per patient): 486% | D1-6: TS, Change from baseline at 6 h day 1 [9, 15]: 62% and −87% and 144% | 6mean-TS, Change from baseline at 6 h based on mean of d1 + d4 [9, 16]: 126% and 144% | 6mean-TS, Change from baseline at 6 h based on mean of d1 + d4 [9, 17]: −65% | D1-6: TS, Change from baseline at 6 h day 1 [9, 18]: −51% and 63% and −21% and 88% and −14% and 274% and 238% | 6mean-TS, Change from baseline at 6 h based on mean of d1 + d4 [9, 19]: −51% and 54% and 286% and 169% and 182% | 6mean-TS, Change from baseline at 6 h based on mean of d1 + d4 [9, 21]: 51% and 142% | TS maximum percentage change versus baseline [9, 22]: 486% | TS maximum percentage change versus baseline [9, 23]: 190% and −87% * and 144% | TS maximum percentage change versus baseline [9, 24]: 238% and −51% * and 63% and 594% and 250% and 116% and 274% and −67% * and 214% | pIC50 [10]: 5.61 to 7.10 | patients with '3 of 3 correct' marker pattern ([11]; 6 h, mean of d1 + d4): 2 pts | patients with '2 of 3 correct' marker pattern (down TS-down DPD-up p21) ([11]; 6 h, mean of d1 + d4, of 20 patients): 3 pts | patients with '3 of 3 correct' marker pattern ([11]; 6 h day 1): 2 pts | patients with '2 of 3 correct' marker pattern (down TS-down DPD-up p21) ([11]; 6 h day 1, of 20 patients): 6 pts | 6mean-DPD, Change from baseline at 6 h based on mean of d1 + d4 ([12]; PXD 300, one value per patient): 131% | D1-6: DPD, Change from baseline at 6 h day 1 ([12]; PXD 300, one value per patient): 136% | D1-6: DPD, Change from baseline at 6 h day 1 [12, 15]: 30% and −87% and −56% and −13% | 6mean-DPD, Change from baseline at 6 h based on mean of d1 + d4 [12, 16]: −22% and −37% and −13% | 6mean-DPD, Change from baseline at 6 h based on mean of d1 + d4 [12, 17]: −59% | D1-6: DPD, Change from baseline at 6 h day 1 [12, 18]: −55% and −57% and 78% and −62% and −28% and 373% and 14% and 6% and 160% and −20% and 547% | 6mean-DPD, Change from baseline at 6 h based on mean of d1 + d4 [12, 19]: −55% and 8% and 124% and −22% and 267% and 372% | 6mean-DPD, Change from baseline at 6 h based on mean of d1 + d4 [12, 20]: 278% and 56% | 6mean-DPD, Change from baseline at 6 h based on mean of d1 + d4 [12, 21]: 15% and 73% and −20% | DPD maximum percentage change versus baseline [12, 22]: 136% | DPD maximum percentage change versus baseline [12, 23]: −74% * and −87% * and −73% * and −13% * | DPD maximum percentage change versus baseline [12, 24]: 547% and 91% and 220% and 169% and −83% * and 563% and 373% and 98% and −60% * and 160% and −20% * and 62% | patients with up-regulation of p21 in tumor tissue ([13]; listed as Bel): Three of 4 | patients with up-regulation of p21 in tumor tissue ([13]; listed as belinostat): 3 of the 4 | p21 Change vs baseline [13, 14]: ≈
